Experimental findings from patent US20230025891A1, “COMPOSITION OF NATURAL EXTRACTS HAVING ANTIBACTERIAL OR BACTERIOSTATIC ACTIVITY ALSO FOR GRAM-NEGATIVE BACTERIA” (priority 2019, published 2023) are described below.

A short description of data set [1]: Solubility. Type of data set: physicochemical. The settings on record: qualitative. How it is done: Racemic usnic acid (CAS No. 125-46-2) is the bioactive secondary metabolite of lichens. The large-scale use of said usnic acid has always been limited due to the low solubility in water (0.06 mg/cm^3, at room temperature of 20° C. and 1 atmosphere pressure).
As mentioned above, in such compound (ci) the lipophilic cavity of the cyclodextrins (host) hosts D-usnic acid, or salt thereof, or mixtures thereof (i) (guest), through a reversible non-covalent interaction. As a matter of fact, during the formation of the inclusion compound (ci), no covalent bond is formed, and no covalent bond is broken. The mechanism which—at least primarily—promotes the formation of the inclusion compound is the release of solvent molecules (preferably water molecules), a highly enthalpic exchange reaction, from the cyclodextrin cavity (ii). […] Furthermore, the inclusion compound (ci) renders D-usnic acid (or a salt thereof) compatible in an aqueous solution or an aqueous dispersion or an aqueous suspension. When said aqueous solution or dispersion or suspension, containing said inclusion compound (ci), is applied manually—by spraying or mechanically—to a surface such as that of a wall or floor of a hospital or kindergarten or school room, said acid or a salt thereof contained in said inclusion compound (ci) is capable of being placed, adhering and coating said surface uniformly and homogeneously as if it were a coating paint.
Said D-usnic acid as enantiomer (i), preferably as pure enantiomer, is of natural origin and could be associated, as chemical structure, with that of the corresponding synthesis compound having CAS No. 7562-61-0, i.e. the dextrorotatory enantiomer of said acid. The D-usnic acid as the pure enantiomer of the present invention is soluble in chloroform and ethyl acetate. […] Said D-usnic acid as a pure enantiomer has a melting point comprised from 192° C. to 204° C., a flash point of 223° C. and a boiling point of 605° C. Preferably, said D-usnic acid salt as pure enantiomer is a sodium salt. Said inclusion compound (ci) preferably comprises solid particles of D-usnic acid as pure enantiomer, or salt thereof, or mixtures thereof (i). More preferably, said solid particles have an average particle distribution comprised from 0.01 μm to 50 μm, preferably comprised from 0.1 μm to 30 μm, more preferably comprised from 0.15 μm to 20 μm, even more preferably comprised from 0.2 μm to 15 μm. Said average particle distribution was determined and measured using a laser diffraction method, according to the GB/T 19077-2016 standard, for example with a Malvern Mastersizer 3000 instrument. Said standard is meant in the version valid at the priority date of the present patent application. […]

A short description of data set [2]: Observed anti-bacterial efficacy depending on origin and isomer of usnic acid. The settings on record: natural versus synthetic dextrorotatory form. The text has this:
Therefore, the solubility of usnic acid in water has always represented, and still represents, a great limit to its use. Furthermore, as regards the efficacy of usnic acid (or of a relative salt thereof) in terms of anti-bacterial activity, the inventors of the present invention observed that it depends both on the (natural or synthetic) origin of usnic acid and on the type of isomer (levorotatory(−) and/or dextrorotatory(+)) used.

On to `CC(=O)c1c(O)c(C)c(O)c2c1OC1=CC(=O)C(C(C)=O)C(=O)C12C` (single isomer, unassigned; (+)) [D-usnic acid, (+)-Usnic acid 2,6-Diacetyl-7,9-dihydroxy-8,9-dimethyldibenzo[b,d]furan-1,3(2H,9bH)-dione], for which, in data set [1], the solubility in chloroform entry is reported as “soluble”, the solubility in ethanol entry is recorded as “moderately soluble”, the “solubility in ethyl acetate” value is listed as “soluble” and the solubility in water entry was “insoluble”. In addition, the “stability, efficacy and activity compared with synthetic origin” value in data set [2] was “more stable, effective and active than the dextrorotatory form (+) of synthetic origin”.
